The values that follow come from patent US8471005B2 (Cephalon, Inc., priority 2008, dated 2013).

Where two headings read alike, the source gives them in different places.

One assay concerns the target T1, ALK (Homo sapiens, UniProt Q9UM73).
T1 construct: host or cells: baculovirus expression system
Description: ALK Kinase Assay (ELISA/TRF, PLC-γ substrate). The class given is biochemical. The note with it: read-out: ALK Potency. An outline of the steps:
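IC50 values derive from percent inhibition plotted against log10 compound concentration and fitted to a variable-slope sigmoidal equation. The underlying reaction used 30 ng/ml ALK acting on immobilized PLC-γ (10 μg/mL in TBS) at 37° C for 15 minutes, read with Eu-N1 PT66 antibody.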
Background: In an ELISA, binding on a coated surface is turned into a signal by an enzyme label.

Another assay has as its target T2, JAK2 (Homo sapiens, UniProt O60674).
T2 construct: host or cells: baculovirus expression system
Description: Recombinant Human JAK2 Kinase Assay (TRF). The settings on record: read-out: JAK2 Potency. The class given is biochemical. An outline of the steps: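 Baculovirus-expressed JAK2 (15 ng/ml) phosphorylated a biotinylated 15-mer peptide captured on Neutravidin-coated plates, in 20 mM HEPES pH 7.2 with 0.2 μM ATP, 1 mM MnCl2, 0.1% BSA and 2.5% DMSO. Reaction ran 20 min at room temperature; phosphopeptide was detected by time-resolved fluorescence with Eu-N1-labelled PY100 antibody.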

Setting [1] is: ALK kinase inhibition, 1 μM ATP.
Where [2] appears, read: JAK2 kinase inhibition, 0.2 μM ATP.

T2 sequence (O60674 whole entry): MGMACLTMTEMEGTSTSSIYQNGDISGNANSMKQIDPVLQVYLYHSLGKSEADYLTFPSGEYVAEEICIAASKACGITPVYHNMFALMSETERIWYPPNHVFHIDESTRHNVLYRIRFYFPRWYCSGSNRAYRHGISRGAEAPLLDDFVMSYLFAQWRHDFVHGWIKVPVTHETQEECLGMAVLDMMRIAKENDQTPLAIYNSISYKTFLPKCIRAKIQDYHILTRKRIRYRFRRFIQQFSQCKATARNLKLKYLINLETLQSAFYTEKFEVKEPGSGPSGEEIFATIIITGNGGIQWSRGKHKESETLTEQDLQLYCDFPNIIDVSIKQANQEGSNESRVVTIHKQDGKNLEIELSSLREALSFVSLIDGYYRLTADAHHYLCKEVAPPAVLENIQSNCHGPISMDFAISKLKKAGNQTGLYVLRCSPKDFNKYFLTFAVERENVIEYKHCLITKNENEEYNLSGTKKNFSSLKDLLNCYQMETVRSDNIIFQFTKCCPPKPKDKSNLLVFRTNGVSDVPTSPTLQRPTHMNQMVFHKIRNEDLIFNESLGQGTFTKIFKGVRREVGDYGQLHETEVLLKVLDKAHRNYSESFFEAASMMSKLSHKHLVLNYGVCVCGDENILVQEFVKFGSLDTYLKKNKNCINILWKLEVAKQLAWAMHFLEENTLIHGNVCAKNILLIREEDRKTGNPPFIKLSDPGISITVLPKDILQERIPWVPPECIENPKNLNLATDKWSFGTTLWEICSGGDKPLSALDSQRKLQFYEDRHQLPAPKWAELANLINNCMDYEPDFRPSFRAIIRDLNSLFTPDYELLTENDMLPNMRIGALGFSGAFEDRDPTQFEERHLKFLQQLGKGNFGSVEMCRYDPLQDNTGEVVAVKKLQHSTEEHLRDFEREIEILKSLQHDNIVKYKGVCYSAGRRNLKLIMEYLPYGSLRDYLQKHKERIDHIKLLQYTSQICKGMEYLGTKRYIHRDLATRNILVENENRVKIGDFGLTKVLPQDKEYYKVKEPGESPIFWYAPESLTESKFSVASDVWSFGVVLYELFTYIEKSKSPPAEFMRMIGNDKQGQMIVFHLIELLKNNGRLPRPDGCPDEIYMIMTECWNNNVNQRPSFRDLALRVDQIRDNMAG
T1 sequence (Q9UM73 19-1620): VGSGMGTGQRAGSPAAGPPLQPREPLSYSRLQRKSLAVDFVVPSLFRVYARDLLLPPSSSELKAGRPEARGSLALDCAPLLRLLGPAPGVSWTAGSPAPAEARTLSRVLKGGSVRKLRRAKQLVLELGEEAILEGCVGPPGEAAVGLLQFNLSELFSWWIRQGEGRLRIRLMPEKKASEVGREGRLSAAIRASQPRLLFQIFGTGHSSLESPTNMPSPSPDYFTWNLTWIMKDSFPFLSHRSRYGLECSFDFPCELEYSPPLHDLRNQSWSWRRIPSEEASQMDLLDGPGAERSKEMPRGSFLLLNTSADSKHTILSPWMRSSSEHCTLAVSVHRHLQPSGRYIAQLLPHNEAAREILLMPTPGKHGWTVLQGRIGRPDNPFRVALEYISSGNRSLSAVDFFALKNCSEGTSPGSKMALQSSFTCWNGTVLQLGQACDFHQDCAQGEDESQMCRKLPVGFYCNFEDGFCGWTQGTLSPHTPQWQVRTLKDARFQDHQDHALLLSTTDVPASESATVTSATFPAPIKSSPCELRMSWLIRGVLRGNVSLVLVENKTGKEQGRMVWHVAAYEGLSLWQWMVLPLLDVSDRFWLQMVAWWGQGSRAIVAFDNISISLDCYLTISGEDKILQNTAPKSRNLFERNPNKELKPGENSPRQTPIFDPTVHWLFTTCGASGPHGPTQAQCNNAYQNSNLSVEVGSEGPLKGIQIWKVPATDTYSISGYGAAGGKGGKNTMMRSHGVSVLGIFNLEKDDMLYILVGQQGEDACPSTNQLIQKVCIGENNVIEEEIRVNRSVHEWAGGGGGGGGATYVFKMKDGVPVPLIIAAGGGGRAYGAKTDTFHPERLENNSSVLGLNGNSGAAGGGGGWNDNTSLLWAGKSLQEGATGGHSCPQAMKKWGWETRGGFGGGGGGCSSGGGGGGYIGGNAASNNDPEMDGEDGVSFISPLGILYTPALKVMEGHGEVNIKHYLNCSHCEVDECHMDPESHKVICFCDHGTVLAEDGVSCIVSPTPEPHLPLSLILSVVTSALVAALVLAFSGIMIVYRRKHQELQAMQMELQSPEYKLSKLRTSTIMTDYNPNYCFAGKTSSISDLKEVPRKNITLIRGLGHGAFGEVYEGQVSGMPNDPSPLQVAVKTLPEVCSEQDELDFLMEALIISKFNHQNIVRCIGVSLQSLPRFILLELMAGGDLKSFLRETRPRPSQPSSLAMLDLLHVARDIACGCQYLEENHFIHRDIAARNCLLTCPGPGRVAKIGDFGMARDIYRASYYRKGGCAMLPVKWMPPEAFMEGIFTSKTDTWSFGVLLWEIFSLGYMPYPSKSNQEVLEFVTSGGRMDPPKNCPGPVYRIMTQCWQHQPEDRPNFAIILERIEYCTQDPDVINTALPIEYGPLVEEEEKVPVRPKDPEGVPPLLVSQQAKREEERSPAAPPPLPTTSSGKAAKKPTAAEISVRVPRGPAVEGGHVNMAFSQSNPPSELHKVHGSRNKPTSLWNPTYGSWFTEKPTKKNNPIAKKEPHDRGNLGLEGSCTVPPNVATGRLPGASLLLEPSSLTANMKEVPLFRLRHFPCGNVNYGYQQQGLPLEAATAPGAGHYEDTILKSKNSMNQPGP

Turning to `COc1cc(N2CCC(N3CCOCC3)CC2)ccc1Nc1ncc2ccc(-c3c(F)cccc3OC)n2n1` [Example 509, [7-(2-Fluoro-6-methoxy-phenyl)-pyrrolo[2,1-f][1,2,4]triazin-2-yl]-[2-methoxy-4-(4-morpholin-4-yl-piperidin-1-yl)-phenyl]-amine], the IC50 at ALK (setting [1]) and on JAK2 (setting [2]) was below 100 nM in each case.

As for `COc1cc(N2CCCN(C[C@H](O)CO)CC2)ccc1Nc1ncc2ccc(-c3ccccc3N(C)S(C)(=O)=O)n2n1` [Example 773, N-[2-(2-{4-[4-((S)-2,3-Dihydroxy-propyl)-[1,4]diazepan-1-yl]-2-methoxy-phenylamino}-pyrrolo[2,1-f][1,2,4]triazin-7-yl)-phenyl]-N-methyl-methanesulfonamide], the IC50 on ALK (setting [1]) was below 100 nM; on JAK2 (setting [2]), 100 to 1000 nM.

For the compound `COc1cc(N2CCC(N3CCOCC3)CC2)ccc1Nc1ncc2ccc(-c3ccccc3OC(C)C)n2n1` [Example 1451, [7-(2-Isopropoxy-phenyl)-pyrrolo[2,1-f][1,2,4]triazin-2-yl]-[2-methoxy-4-(4-morpholin-4-yl-piperidin-1-yl)-phenyl]-amine], the IC50 on ALK (ALK Kinase Inhibition) and at JAK2 (JAK2 Kinase Inhibition) was below 100 nM each time.

As for “1-[7-(2-Methoxy-phenyl)-pyrrolo[2,1-f][1,2,4]triazin-2-yl]-1H-imidazo[4,5-c]pyridine [Example 322]”, the IC50 is 1000 to 10000 nM at ALK (ALK Kinase Inhibition) and 100 to 1000 nM at JAK2 (JAK2 Kinase Inhibition).

For `COc1ccccc1-c1ccc2cnc(Nc3cccc(C4C(=O)N(C)CCN4C)c3)nn12` (stereo not drawn) [Example 1082, 3-{3-[7-(2-Methoxy-phenyl)-pyrrolo[2,1-f][1,2,4]triazin-2-ylamino]-phenyl}-1,4-dimethyl-piperazin-2-one], the results for the IC50 on ALK (setting [1]) and on JAK2 (setting [2]) were 1000 to 10000 nM and below 100 nM, respectively.

As for `COc1cc(C2CCN(CC(N)=O)CC2)ccc1Nc1ncc2c(C)cc(-c3ccccc3N(C)S(C)(=O)=O)n2n1` [Example 1255, 2-[4-(4-{7-[2-(Methanesulfonyl-methyl-amino)-phenyl]-5-methyl-pyrrolo[2,1-f][1,2,4]triazin-2-ylamino}-3-methoxy-phenyl)-piperidin-1-yl]-acetamide], the values for the IC50 at ALK (setting [1]) and on JAK2 (setting [2]) were below 100 nM and 100 to 1000 nM, respectively.

Regarding `CN1CCN(c2ccc(Nc3ncc4ccc(-c5ccccc5OCC(=O)O)n4n3)cc2F)CC1` [Example 1401, (2-{2-[3-Fluoro-4-(4-methyl-piperazin-1-yl)-phenylamino]-pyrrolo[2,1-f][1,2,4]triazin-7-yl}-phenoxy)-acetic acid], the IC50 at ALK (ALK Kinase Inhibition) was 100 to 1000 nM; at JAK2 (JAK2 Kinase Inhibition), below 100 nM.

`COc1ccc(-c2ccc3cnc(Nc4ccc(N5CCOCC5)cc4)nn23)cn1` [Example 1105, [7-(6-Methoxy-pyridin-3-yl)-pyrrolo[2,1-f][1,2,4]triazin-2-yl]-(4-morpholin-4-yl-phenyl)-amine]: the IC50 is 1000 to 10000 nM on ALK (setting [1]) and below 100 nM at JAK2 (setting [2]).

As for `COc1ccc(-c2ccc3cnc(Nc4ccc5c(c4)NC(=O)C5(C)C)nn23)cn1` [Example 658, 6-[7-(6-Methoxy-pyridin-3-yl)-pyrrolo[2,1-f][1,2,4]triazin-2-ylamino]-3,3-dimethyl-1,3-dihydro-indol-2-one], the IC50 at ALK (setting [1]) is above 10000 nM; at JAK2 (setting [2]) it was below 100 nM.

Consider `Brc1ccc(Nc2ncc3cc4ccccc4n3n2)cc1` [Example 751, (4-Bromo-phenyl)-[1,2,4]triazino[1,6-a]indol-2-yl-amine], for which the IC50 on ALK (setting [1]) and at JAK2 (setting [2]) was above 10000 nM each time.

For `COc1ccccc1-c1ccc2cnc(Nc3ccc(=O)[nH]c3)nn12` [Example 591, 5-[7-(2-Methoxy-phenyl)-pyrrolo[2,1-f][1,2,4]triazin-2-ylamino]-1H-pyridin-2-one], the IC50 was 1000 to 10000 nM at ALK (setting [1]) and below 100 nM on JAK2 (setting [2]).

`COc1cc(N2CCC(N3CCCOCC3)CC2)ccc1Nc1ncc2ccc(-c3ccccc3OC)n2n1` [Example 780, [2-Methoxy-4-(4-[1,4]oxazepan-4-yl-piperidin-1-yl)-phenyl]-[7-(2-methoxy-phenyl)-pyrrolo[2,1-f][1,2,4]triazin-2-yl]-amine]: the IC50 at ALK (setting [1]) and on JAK2 (setting [2]) was below 100 nM each time.

As to `CCN(CC)C1CCN(c2ccc(Nc3ncc4ccc(-c5cccc(S(C)(=O)=O)c5)n4n3)cc2)CC1` [Example 1137, [4-(4-Diethylamino-piperidin-1-yl)-phenyl]-[7-(3-methanesulfonyl-phenyl)-pyrrolo[2,1-f][1,2,4]triazin-2-yl]-amine], the IC50 on ALK (setting [1]) was 100 to 1000 nM; on JAK2 (setting [2]), below 100 nM.

Consider `COc1cc(N2CCC(N3CCN(C)CC3)CC2)ccc1Nc1ncc2ccc(-c3ccc(Cl)nc3)n2n1` [Example 533, [7-(6-Chloro-pyridin-3-yl)-pyrrolo[2,1-f][1,2,4]triazin-2-yl]-{2-methoxy-4-[4-(4-methyl-piperazin-1-yl)-piperidin-1-yl]-phenyl}-amine], for which the IC50 on ALK (setting [1]) and at JAK2 (setting [2]) was below 100 nM throughout.

Turning to `CN1CCN(c2cccc(Nc3ncc4ccc(-c5cccc(N6CCOCC6)c5)n4n3)c2)CC1` [Example 1392, [3-(4-Methyl-piperazin-1-yl)-phenyl]-[7-(3-morpholin-4-yl-phenyl)-pyrrolo[2,1-f][1,2,4]triazin-2-yl]-amine], the IC50 at ALK (ALK Kinase Inhibition) was 100 to 1000 nM; on JAK2 (JAK2 Kinase Inhibition), below 100 nM.

`COc1cc(N2CCC(N3CC[C@@H](O)C3)CC2)ccc1Nc1ncc2ccc(-c3ccccc3OC)n2n1` [Example 479, (R)-1-(1-{3-Methoxy-4-[7-(2-methoxy-phenyl)-pyrrolo[2,1-f][1,2,4]triazin-2-ylamino]-phenyl}-piperidin-4-yl)-pyrrolidin-3-ol]: the IC50 on ALK (setting [1]) and on JAK2 (setting [2]) was below 100 nM throughout.

For `COc1cc(C2CCN(C[C@H](Oc3ncc4ccc(-c5ccccc5OC)n4n3)C(F)(F)F)CC2)ccc1N` [Example 786, 2-Methoxy-4-(1-{(S)-3,3,3-trifluoro-2-[7-(2-methoxy-phenyl)-pyrrolo[2,1-f][1,2,4]triazin-2-yloxy]-propyl}-piperidin-4-yl)-phenylamine], the IC50 on ALK (setting [1]) and on JAK2 (setting [2]) was above 10000 nM throughout.

As to `CN1CCN(c2ccc(Nc3ncc4ccc(-c5cnc6ccccc6c5)n4n3)cc2)CC1` [Example 1037, [4-(4-Methyl-piperazin-1-yl)-phenyl]-(7-quinolin-3-yl-pyrrolo[2,1-f][1,2,4]triazin-2-yl)-amine], the IC50 at ALK (setting [1]) and at JAK2 (setting [2]) was below 100 nM in each case.

`N#CCCn1cccc1-c1ccc2cnc(Nc3cccc(N4CCCC4=O)c3)nn12` [Example 1296, 3-(2-{2-[3-(2-oxo-pyrrolidin-1-yl)-phenylamino]-pyrrolo[2,1-f][1,2,4]triazin-7-yl}-pyrrol-1-yl)-propionitrile]: the figures for the IC50 on ALK (setting [1]) and at JAK2 (setting [2]) were 1000 to 10000 nM and below 100 nM, respectively.

For the compound `COc1ccc(-c2ccc3cnc(Nc4ccc(C(=O)N5CCOCC5)cc4)nn23)cn1` [Example 1406, {4-[7-(6-Methoxy-pyridin-3-yl)-pyrrolo[2,1-f][1,2,4]triazin-2-ylamino]-phenyl}-morpholin-4-yl-methanone], the figures for the IC50 on ALK (ALK Kinase Inhibition) and on JAK2 (JAK2 Kinase Inhibition) were above 10000 nM and below 100 nM, respectively.

With `COc1cc(N2CCC(N3CCOCC3)CC2)ccc1Nc1ncc2ccc(-c3ccccc3C#N)n2n1` [Example 511, 2-{2-[2-Methoxy-4-(4-morpholin-4-yl-piperidin-1-yl)-phenylamino]-pyrrolo[2,1-f][1,2,4]triazin-7-yl}-benzonitrile], the IC50 on ALK (setting [1]) and on JAK2 (setting [2]) was below 100 nM each time.

Turning to `COc1ccc2c(c1)cc1cnc(Nc3ccc(N4CCOCC4)cc3OC)nn12` [Example 269, (2-Methoxy-4-morpholin-4-yl-phenyl)-(7-methoxy-[1,2,4]triazino[1,6-a]indol-2-yl)-amine], the IC50 at ALK (ALK Kinase Inhibition) and on JAK2 (JAK2 Kinase Inhibition) was 1000 to 10000 nM each time.

On to `C[C@H](O)CN1CCC(c2ccc(Nc3ncc4ccc(-c5cccc(S(C)(=O)=O)c5)n4n3)cc2)CC1` [Example 1431, (S)-1-(4-{4-[7-(3-Methanesulfonyl-phenyl)-pyrrolo[2,1-f][1,2,4]triazin-2-ylamino]-phenyl}-piperidin-1-yl)-propan-2-ol], for which the IC50 at ALK (ALK Kinase Inhibition) is 100 to 1000 nM; on JAK2 (JAK2 Kinase Inhibition) it was below 100 nM.

For `CN1CCN(C2CCN(c3ccc(Nc4ncc5cc6ccccc6n5n4)cc3)CC2)CC1` [Example 264, {4-[4-(4-Methyl-piperazin-1-yl)-piperidin-1-yl]-phenyl}-[1,2,4]triazino[1,6-a]indol-2-yl-amine], the IC50 at ALK (ALK Kinase Inhibition) was 1000 to 10000 nM; on JAK2 (JAK2 Kinase Inhibition), below 100 nM.

As to `O=S1(=O)CCN(Cc2ccc(Nc3ncc4ccc(-c5cccnc5)n4n3)cc2)CC1` [Example 1050, [4-(1,1-Dioxo-1$1(6)-thiomorpholin-4-ylmethyl)-phenyl]-(7-pyridin-3-yl-pyrrolo[2,1-f][1,2,4]triazin-2-yl)-amine], the figures for the IC50 at ALK (setting [1]) and at JAK2 (setting [2]) were 1000 to 10000 nM and below 100 nM, respectively.

Take `CCN1CCOC(c2ccc(Nc3ncc4ccc(-c5cnn(C)c5)n4n3)cc2)C1` (stereo not drawn) [Example 1189, [4-(4-Ethyl-morpholin-2-yl)-phenyl]-[7-(1-methyl-1H-pyrazol-4-yl)-pyrrolo[2,1-f][1,2,4]triazin-2-yl]-amine]: the IC50 was 100 to 1000 nM at ALK (setting [1]) and below 100 nM at JAK2 (setting [2]).

As for `CN1CCN(c2ccc(Nc3ncc4ccc(-c5ccc(C=O)cc5)n4n3)cc2)CC1` [Example 1203, 4-{2-[4-(4-Methyl-piperazin-1-yl)-phenylamino]-pyrrolo[2,1-f][1,2,4]triazin-7-yl}-benzaldehyde], the results for the IC50 at ALK (setting [1]) and on JAK2 (setting [2]) were 100 to 1000 nM and below 100 nM, respectively.
